From PMC7553946, “Soticlestat, a novel cholesterol 24-hydroxylase inhibitor shows a therapeutic potential for neural hyperexcitation in mice” (Scientific Reports, 2020)

Legend:
Dopamine D3 = molecular target: T1, Dopamine D3 (Homo sapiens, UniProt P35462); assay: biochemical; parameters: radioligand displacement binding panel of CNS receptors and transporters, single concentration; settings: read-out: Inhibition (%)
T1 construct: gene DRD3
Description: (§1) Soticlestat (Supplementary Fig. S1) was discovered as a result of an iterative medicinal chemistry effort following high-throughput screening of an in vitro enzyme assay (Fig. 1A,B).

5-HT2B = molecular target: T2, 5-HT2B (Homo sapiens, UniProt P41595); assay: biochemical; parameters: radioligand displacement binding panel of CNS receptors and transporters, single concentration; settings: read-out: Inhibition (%)
T2 construct: gene HTR2B
Description: as §1

Bradykinin B1 = molecular target: T3, Bradykinin B1 (Homo sapiens, UniProt P46663); assay: biochemical; parameters: radioligand displacement binding panel of CNS receptors and transporters, single concentration; settings: read-out: Inhibition (%)
T3 construct: gene BDKRB1
Description: as §1

Angiotensin AT2 = molecular target: T4, Angiotensin AT2 (Homo sapiens, UniProt P50052); assay: biochemical; parameters: radioligand displacement binding panel of CNS receptors and transporters, single concentration; settings: read-out: Inhibition (%)
T4 construct: gene AGTR2
Description: as §1

GABA B1B = molecular target: T5, GABA B1B (Homo sapiens, UniProt Q9UBS5); assay: biochemical; parameters: radioligand displacement binding panel of CNS receptors and transporters, single concentration; settings: read-out: Inhibition (%)
T5 construct: gene GABBR1; isoform 1B
Description: as §1

Adenosine A2B = molecular target: T6, Adenosine A2B (Homo sapiens, UniProt P29275); assay: biochemical; parameters: radioligand displacement binding panel of CNS receptors and transporters, single concentration; settings: read-out: Inhibition (%)
T6 construct: gene ADORA2B
Description: as §1

Histamine H1 = molecular target: T7, Histamine H1 (Homo sapiens, UniProt P35367); assay: biochemical; parameters: radioligand displacement binding panel of CNS receptors and transporters, single concentration; settings: read-out: Inhibition (%)
T7 construct: gene HRH1
Description: as §1

Cannabinoid CB1 = molecular target: T8, Cannabinoid CB1 (Homo sapiens, UniProt P21554); assay: biochemical; parameters: radioligand displacement binding panel of CNS receptors and transporters, single concentration; settings: read-out: Inhibition (%)
T8 construct: gene CNR1
Description: as §1

Vasopressin V1A = molecular target: T9, Vasopressin V1A (Homo sapiens, UniProt P37288); assay: biochemical; parameters: radioligand displacement binding panel of CNS receptors and transporters, single concentration; settings: read-out: Inhibition (%)
T9 construct: gene AVPR1A
Description: as §1

Muscarinic M1 = molecular target: T10, Muscarinic M1 (Homo sapiens, UniProt P11229); assay: biochemical; parameters: radioligand displacement binding panel of CNS receptors and transporters, single concentration; settings: read-out: Inhibition (%)
T10 construct: gene CHRM1
Description: as §1

[1] = molecular target: T11, Norepinephrine transporter (Homo sapiens, UniProt P23975); assay: biochemical; parameters: radioligand displacement binding panel of CNS receptors and transporters, single concentration; settings: read-out: Inhibition (%)
T11 construct: gene SLC6A2
Description: as §1

Adrenergic β2 = molecular target: T12, Adrenergic β2 (Homo sapiens, UniProt P07550); assay: biochemical; parameters: radioligand displacement binding panel of CNS receptors and transporters, single concentration; settings: read-out: Inhibition (%)
T12 construct: gene ADRB2
Description: as §1

Muscarinic M2 = molecular target: T13, Muscarinic M2 (Homo sapiens, UniProt P08172); assay: biochemical; parameters: radioligand displacement binding panel of CNS receptors and transporters, single concentration; settings: read-out: Inhibition (%)
T13 construct: gene CHRM2
Description: as §1

Dopamine D1 = molecular target: T14, Dopamine D1 (Homo sapiens, UniProt P21728); assay: biochemical; parameters: radioligand displacement binding panel of CNS receptors and transporters, single concentration; settings: read-out: Inhibition (%)
T14 construct: gene DRD1
Description: as §1

Adrenergic β1 = molecular target: T15, Adrenergic β1 (Homo sapiens, UniProt P08588); assay: biochemical; parameters: radioligand displacement binding panel of CNS receptors and transporters, single concentration; settings: read-out: Inhibition (%)
T15 construct: gene ADRB1
Description: as §1

Dopamine D4.2 = molecular target: T16, Dopamine D4.2 (Homo sapiens, UniProt P21917); assay: biochemical; parameters: radioligand displacement binding panel of CNS receptors and transporters, single concentration; settings: read-out: Inhibition (%)
T16 construct: gene DRD4; D4.2 repeat variant
Description: as §1

Muscarinic M3 = molecular target: T17, Muscarinic M3 (Homo sapiens, UniProt P20309); assay: biochemical; parameters: radioligand displacement binding panel of CNS receptors and transporters, single concentration; settings: read-out: Inhibition (%)
T17 construct: gene CHRM3
Description: as §1

Dopamine transporter = molecular target: T18, Dopamine transporter (Homo sapiens, UniProt Q01959); assay: biochemical; parameters: radioligand displacement binding panel of CNS receptors and transporters, single concentration; settings: read-out: Inhibition (%)
T18 construct: gene SLC6A3
Description: as §1

Adrenergic β3 = molecular target: T19, Adrenergic β3 (Homo sapiens, UniProt P13945); assay: biochemical; parameters: radioligand displacement binding panel of CNS receptors and transporters, single concentration; settings: read-out: Inhibition (%)
T19 construct: gene ADRB3
Description: as §1

GABA B1A = molecular target: T20, GABA B1A (Homo sapiens, UniProt Q9UBS5); assay: biochemical; parameters: radioligand displacement binding panel of CNS receptors and transporters, single concentration; settings: read-out: Inhibition (%)
T20 construct: gene GABBR1; isoform 1A
Description: as §1

Opiate μ (OP3, MOP) = molecular target: T21, Opiate μ (OP3, MOP) (Homo sapiens, UniProt P35372); assay: biochemical; parameters: radioligand displacement binding panel of CNS receptors and transporters, single concentration; settings: read-out: Inhibition (%)
T21 construct: gene OPRM1
Description: as §1

Serotonin transporter = molecular target: T22, Serotonin transporter (Homo sapiens, UniProt P31645); assay: biochemical; parameters: radioligand displacement binding panel of CNS receptors and transporters, single concentration; settings: read-out: Inhibition (%)
T22 construct: gene SLC6A4
Description: as §1

Opiate κ (OP2, KOP) = molecular target: T23, Opiate κ (OP2, KOP) (Homo sapiens, UniProt P41145); assay: biochemical; parameters: radioligand displacement binding panel of CNS receptors and transporters, single concentration; settings: read-out: Inhibition (%)
T23 construct: gene OPRK1
Description: as §1

Dopamine D2L = molecular target: T24, Dopamine D2L (Homo sapiens, UniProt P14416); assay: biochemical; parameters: radioligand displacement binding panel of CNS receptors and transporters, single concentration; settings: read-out: Inhibition (%)
T24 construct: gene DRD2; long isoform
Description: as §1

Histamine H2 = molecular target: T25, Histamine H2 (Homo sapiens, UniProt P25021); assay: biochemical; parameters: radioligand displacement binding panel of CNS receptors and transporters, single concentration; settings: read-out: Inhibition (%)
T25 construct: gene HRH2
Description: as §1

[2] = molecular target: cholesterol 24-hydroxylase (CH24H, CYP46A1) (Homo sapiens, UniProt Q9Y6A2); assay: […]cholesterol 24-hydroxylation assay by TLC with lysate of CH24H-expressing cells; assay type: biochemical
[3] = molecular target: T26, Peptidase, Metalloproteinase, Neutral Endopeptidase (Homo sapiens, UniProt P08473); assay: biochemical; parameters: enzyme inhibition panel, single concentration; settings: read-out: Inhibition (%)
T26 construct: gene MME
Description: as §1

MAO B = molecular target: T27, MAO B (Homo sapiens, UniProt P27338); assay: biochemical; parameters: enzyme inhibition panel, single concentration; settings: read-out: Inhibition (%)
T27 construct: gene MAOB
Description: as §1

Phosphodiesterase 5 = molecular target: T28, Phosphodiesterase 5 (Homo sapiens, UniProt O76074); assay: biochemical; parameters: enzyme inhibition panel, single concentration; settings: read-out: Inhibition (%)
T28 construct: gene PDE5A
Description: as §1

Cyclooxygenase (COX-1) = molecular target: T29, Cyclooxygenase (COX-1) (Homo sapiens, UniProt P23219); assay: biochemical; parameters: enzyme inhibition panel, single concentration; settings: read-out: Inhibition (%)
T29 construct: gene PTGS1
Description: as §1

Cyclooxygenase (COX-2) = molecular target: T30, Cyclooxygenase (COX-2) (Homo sapiens, UniProt P35354); assay: biochemical; parameters: enzyme inhibition panel, single concentration; settings: read-out: Inhibition (%)
T30 construct: gene PTGS2
Description: as §1

MAO A = molecular target: T31, MAO A (Homo sapiens, UniProt P21397); assay: biochemical; parameters: enzyme inhibition panel, single concentration; settings: read-out: Inhibition (%)
T31 construct: gene MAOA
Description: as §1

[4] = molecular target: T32, Cholinesterase, Acetyl, ACES (Homo sapiens, UniProt P22303); assay: biochemical; parameters: enzyme inhibition panel, single concentration; settings: read-out: Inhibition (%)
T32 construct: gene ACHE
Description: as §1

T21 sequence (P35372 whole entry): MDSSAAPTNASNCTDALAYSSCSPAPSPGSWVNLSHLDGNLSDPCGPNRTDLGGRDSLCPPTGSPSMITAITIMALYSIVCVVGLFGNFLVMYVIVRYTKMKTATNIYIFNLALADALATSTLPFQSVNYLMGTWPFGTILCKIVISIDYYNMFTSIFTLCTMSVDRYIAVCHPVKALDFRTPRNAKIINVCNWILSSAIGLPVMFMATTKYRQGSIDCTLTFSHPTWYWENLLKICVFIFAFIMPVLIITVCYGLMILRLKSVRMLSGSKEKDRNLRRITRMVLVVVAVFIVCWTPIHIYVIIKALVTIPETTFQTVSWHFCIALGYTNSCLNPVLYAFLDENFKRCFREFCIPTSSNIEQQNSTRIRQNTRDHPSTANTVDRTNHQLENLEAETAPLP
T11 sequence (P23975 whole entry): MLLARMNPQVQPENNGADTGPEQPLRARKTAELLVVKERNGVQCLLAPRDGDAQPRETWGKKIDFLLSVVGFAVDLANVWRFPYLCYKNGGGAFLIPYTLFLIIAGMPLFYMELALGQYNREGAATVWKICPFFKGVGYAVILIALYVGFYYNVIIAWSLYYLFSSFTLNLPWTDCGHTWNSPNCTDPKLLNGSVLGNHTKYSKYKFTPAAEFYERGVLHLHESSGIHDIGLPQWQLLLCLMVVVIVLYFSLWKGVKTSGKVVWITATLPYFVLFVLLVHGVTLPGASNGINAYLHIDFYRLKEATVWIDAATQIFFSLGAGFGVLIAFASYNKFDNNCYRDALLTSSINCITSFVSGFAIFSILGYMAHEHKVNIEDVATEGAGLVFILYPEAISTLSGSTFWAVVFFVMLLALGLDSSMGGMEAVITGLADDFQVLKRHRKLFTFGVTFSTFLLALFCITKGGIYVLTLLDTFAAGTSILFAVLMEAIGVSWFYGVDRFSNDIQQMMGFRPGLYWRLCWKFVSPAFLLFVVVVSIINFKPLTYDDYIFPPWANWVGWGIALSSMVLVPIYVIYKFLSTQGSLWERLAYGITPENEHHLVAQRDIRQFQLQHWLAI
T27 sequence (P27338 whole entry): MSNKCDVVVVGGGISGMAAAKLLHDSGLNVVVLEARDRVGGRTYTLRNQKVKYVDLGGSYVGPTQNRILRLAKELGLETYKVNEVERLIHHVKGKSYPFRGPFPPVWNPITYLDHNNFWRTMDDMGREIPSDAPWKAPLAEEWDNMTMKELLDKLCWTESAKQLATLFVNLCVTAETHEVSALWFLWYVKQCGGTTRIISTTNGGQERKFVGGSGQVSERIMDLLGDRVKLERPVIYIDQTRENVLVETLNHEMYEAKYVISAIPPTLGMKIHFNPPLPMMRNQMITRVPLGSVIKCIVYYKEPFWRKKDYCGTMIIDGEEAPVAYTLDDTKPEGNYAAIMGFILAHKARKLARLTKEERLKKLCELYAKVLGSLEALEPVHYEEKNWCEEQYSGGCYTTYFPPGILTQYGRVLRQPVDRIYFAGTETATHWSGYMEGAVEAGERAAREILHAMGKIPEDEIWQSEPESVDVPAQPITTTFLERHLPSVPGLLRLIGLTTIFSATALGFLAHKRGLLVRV
T7 sequence (P35367 whole entry): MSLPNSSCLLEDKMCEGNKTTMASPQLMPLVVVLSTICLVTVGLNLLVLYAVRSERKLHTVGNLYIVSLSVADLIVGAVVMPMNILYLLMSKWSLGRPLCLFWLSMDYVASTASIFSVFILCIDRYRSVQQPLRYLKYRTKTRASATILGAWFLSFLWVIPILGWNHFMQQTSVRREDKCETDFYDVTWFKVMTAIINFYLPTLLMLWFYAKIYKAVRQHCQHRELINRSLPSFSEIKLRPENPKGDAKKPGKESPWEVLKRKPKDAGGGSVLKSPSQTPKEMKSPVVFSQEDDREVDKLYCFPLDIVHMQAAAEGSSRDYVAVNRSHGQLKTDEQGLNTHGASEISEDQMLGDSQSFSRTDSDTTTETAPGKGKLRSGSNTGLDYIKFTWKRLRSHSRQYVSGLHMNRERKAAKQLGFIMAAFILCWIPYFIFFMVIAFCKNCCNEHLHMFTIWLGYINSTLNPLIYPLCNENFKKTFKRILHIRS
T10 sequence (P11229 whole entry): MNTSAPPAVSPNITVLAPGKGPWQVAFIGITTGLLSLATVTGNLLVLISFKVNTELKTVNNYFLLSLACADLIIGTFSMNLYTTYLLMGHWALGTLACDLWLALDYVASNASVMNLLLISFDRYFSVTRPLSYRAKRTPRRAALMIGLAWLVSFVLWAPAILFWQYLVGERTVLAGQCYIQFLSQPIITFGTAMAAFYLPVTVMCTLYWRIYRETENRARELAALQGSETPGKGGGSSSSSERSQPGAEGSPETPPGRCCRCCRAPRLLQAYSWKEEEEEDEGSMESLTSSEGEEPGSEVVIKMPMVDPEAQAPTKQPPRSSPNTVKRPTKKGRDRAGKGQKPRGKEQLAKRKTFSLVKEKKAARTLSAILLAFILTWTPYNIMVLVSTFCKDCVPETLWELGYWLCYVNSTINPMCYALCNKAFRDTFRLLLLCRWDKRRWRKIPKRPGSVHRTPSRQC
Sequence of cholesterol 24-hydroxylase (CH24H, CYP46A1) (Q9Y6A2 whole entry): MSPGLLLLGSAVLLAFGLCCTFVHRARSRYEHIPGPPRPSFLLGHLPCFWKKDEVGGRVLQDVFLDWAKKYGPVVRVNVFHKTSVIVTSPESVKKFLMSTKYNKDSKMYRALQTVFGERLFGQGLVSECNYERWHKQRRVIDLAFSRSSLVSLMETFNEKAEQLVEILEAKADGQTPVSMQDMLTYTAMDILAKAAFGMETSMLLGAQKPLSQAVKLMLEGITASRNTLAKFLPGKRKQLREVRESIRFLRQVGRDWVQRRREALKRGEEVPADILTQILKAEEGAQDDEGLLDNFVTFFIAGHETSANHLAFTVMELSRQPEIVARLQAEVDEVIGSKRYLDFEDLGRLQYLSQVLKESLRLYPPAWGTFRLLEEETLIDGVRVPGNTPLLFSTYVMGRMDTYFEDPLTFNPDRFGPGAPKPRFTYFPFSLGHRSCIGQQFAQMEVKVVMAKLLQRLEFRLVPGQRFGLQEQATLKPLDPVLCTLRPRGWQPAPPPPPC
T15 sequence (P08588 whole entry): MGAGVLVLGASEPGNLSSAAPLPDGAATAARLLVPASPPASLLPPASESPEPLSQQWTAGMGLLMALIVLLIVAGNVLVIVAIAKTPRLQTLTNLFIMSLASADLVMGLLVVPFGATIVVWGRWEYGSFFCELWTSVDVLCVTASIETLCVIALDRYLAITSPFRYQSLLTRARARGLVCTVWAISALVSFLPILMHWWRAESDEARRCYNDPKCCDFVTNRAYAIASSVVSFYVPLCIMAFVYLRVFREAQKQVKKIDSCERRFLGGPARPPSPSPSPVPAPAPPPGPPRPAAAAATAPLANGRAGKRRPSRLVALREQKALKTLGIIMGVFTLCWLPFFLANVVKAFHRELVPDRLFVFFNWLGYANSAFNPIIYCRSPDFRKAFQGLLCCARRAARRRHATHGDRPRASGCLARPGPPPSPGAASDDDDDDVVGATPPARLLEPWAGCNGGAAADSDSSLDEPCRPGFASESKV
T12 sequence (P07550 whole entry): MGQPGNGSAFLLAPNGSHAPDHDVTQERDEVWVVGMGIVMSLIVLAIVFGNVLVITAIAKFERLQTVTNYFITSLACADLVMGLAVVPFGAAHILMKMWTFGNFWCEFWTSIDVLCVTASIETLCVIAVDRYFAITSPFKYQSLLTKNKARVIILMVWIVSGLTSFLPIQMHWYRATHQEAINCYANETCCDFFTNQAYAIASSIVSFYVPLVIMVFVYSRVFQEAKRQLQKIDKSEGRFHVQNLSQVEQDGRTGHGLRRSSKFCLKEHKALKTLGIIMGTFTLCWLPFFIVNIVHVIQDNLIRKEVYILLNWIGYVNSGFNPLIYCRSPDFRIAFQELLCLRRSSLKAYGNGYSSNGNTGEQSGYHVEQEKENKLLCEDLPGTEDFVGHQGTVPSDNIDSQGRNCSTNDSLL
T31 sequence (P21397 whole entry): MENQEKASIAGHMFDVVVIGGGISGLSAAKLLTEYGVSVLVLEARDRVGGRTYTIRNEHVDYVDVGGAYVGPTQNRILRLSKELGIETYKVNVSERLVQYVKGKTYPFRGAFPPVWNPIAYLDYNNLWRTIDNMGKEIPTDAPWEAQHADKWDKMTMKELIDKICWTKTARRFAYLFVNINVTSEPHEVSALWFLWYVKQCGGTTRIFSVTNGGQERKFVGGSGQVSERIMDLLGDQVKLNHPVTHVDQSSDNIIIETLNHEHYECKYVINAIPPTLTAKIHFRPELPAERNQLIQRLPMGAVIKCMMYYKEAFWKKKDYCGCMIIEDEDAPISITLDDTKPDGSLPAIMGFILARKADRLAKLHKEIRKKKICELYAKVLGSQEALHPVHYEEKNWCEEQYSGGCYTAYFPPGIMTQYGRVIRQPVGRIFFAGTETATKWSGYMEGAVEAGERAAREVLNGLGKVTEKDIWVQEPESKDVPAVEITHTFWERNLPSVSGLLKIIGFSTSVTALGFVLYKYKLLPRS
T24 sequence (P14416 whole entry, canonical isoform): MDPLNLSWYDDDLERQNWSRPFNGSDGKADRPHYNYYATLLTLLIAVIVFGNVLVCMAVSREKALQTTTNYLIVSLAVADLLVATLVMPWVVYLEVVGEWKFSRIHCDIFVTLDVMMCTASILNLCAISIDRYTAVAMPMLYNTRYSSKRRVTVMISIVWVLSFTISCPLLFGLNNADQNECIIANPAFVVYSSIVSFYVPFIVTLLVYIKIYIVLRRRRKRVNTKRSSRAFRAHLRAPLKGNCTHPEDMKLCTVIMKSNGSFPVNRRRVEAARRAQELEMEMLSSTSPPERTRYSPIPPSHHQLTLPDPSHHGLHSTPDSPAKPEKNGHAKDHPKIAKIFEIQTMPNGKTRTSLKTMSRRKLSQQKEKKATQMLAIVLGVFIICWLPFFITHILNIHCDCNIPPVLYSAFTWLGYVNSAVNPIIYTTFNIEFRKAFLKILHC

`O=C(c1cccnc1-c1ccncc1)N1CCC(O)(Cc2ccccc2)CC1` [soticlestat, (4-benzyl-4-hydroxypiperidin-1-yl)(2,4′-bipyridin-3-yl) methanone] was tested, and the inhibition at 10 µM (Dopamine D3) was 5%, the inhibition at 10 µM (5-HT2B) was 5% and the inhibition at 10 µM (Bradykinin B1) was 13%. It also gave an inhibition at 10 µM (Angiotensin AT2) of -10%, an inhibition at 10 µM (GABA B1B) of 8% and an inhibition at 10 µM (Adenosine A2B) of 20%. For the same molecule, the inhibition at 10 µM (Histamine H1) was -2%, the inhibition at 10 µM (Cannabinoid CB1) was -5% and the inhibition at 10 µM (Vasopressin V1A) was -11%. It also gave an inhibition at 10 µM (Muscarinic M1) of 7%, an inhibition at 10 µM [1] of -1% and an inhibition at 10 µM (Adrenergic β2) of 6%. For the same molecule, the inhibition at 10 µM (Muscarinic M2) was 1%, the inhibition at 10 µM (Dopamine D1) was 5% and the inhibition at 10 µM (Adrenergic β1) was -4%. For the same molecule, the inhibition at 10 µM (Dopamine D4.2) was 0%, the inhibition at 10 µM (Muscarinic M3) was 12% and the inhibition at 10 µM (Dopamine transporter) was 0%. It also gave an inhibition at 10 µM (Adrenergic β3) of -7%, an inhibition at 10 µM (GABA B1A) of 6% and an inhibition at 10 µM (Opiate μ (OP3, MOP)) of -1%. The inhibition at 10 µM (Serotonin transporter) was 6%, the inhibition at 10 µM (Opiate κ (OP2, KOP)) was -1% and the inhibition at 10 µM (Dopamine D2L) was 15%. For the same molecule, the inhibition at 10 µM (Histamine H2) was 5%, the IC50 [2] was 4.5 nM and the inhibition at 10 µM [3] was -4%. For the same molecule, the inhibition at 10 µM (MAO B) was 0%, the inhibition at 10 µM (Phosphodiesterase 5) was -2% and the inhibition at 10 µM (Cyclooxygenase (COX-1)) was -14%. It also gave an inhibition at 10 µM (Cyclooxygenase (COX-2)) of 4%, an inhibition at 10 µM (MAO A) of 1% and an inhibition at 10 µM [4] of 0%.
